Where two headings read alike, the source gives them in different places.
Biological target: human NaV 1.8 (Homo sapiens, UniProt Q9Y5Y9)
Assay: E-VIPR assay detecting and measuring NaV inhibition properties
Format: cell-based
Conditions: HEK cells expressing truncated human NaV 1.8
Outline: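 HEK cells expressing truncated, fully active human NaV1.8, with KIR2.1 BacMam co-transduction, were loaded with CC2-DMPE/DiSBAC6(3) voltage-sensing dyes for 20 min at room temperature. Compounds were tested in 11-point 3-fold dilutions (300 nM top final), optionally with 25% human serum, under electrical stimulation with FRET read-out.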

[1] = no human serum, read-out: IC50 in the E-VIPR Assay
[2] = in the presence of human serum (compound numbers followed by *), read-out: IC50 in the E-VIPR Assay, performed in the presence of human serum

Sequence of human NaV 1.8 (Q9Y5Y9 126-399 limits assumed): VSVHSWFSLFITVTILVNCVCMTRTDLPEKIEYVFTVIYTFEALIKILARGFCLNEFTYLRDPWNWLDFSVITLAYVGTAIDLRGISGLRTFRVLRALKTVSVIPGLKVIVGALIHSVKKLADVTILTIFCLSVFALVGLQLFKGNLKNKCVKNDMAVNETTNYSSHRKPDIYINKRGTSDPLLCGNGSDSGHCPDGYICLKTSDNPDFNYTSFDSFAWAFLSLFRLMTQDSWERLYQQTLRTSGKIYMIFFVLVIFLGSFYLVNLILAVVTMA
Sequence of human NaV 1.8 (Q9Y5Y9 660-890 limits assumed): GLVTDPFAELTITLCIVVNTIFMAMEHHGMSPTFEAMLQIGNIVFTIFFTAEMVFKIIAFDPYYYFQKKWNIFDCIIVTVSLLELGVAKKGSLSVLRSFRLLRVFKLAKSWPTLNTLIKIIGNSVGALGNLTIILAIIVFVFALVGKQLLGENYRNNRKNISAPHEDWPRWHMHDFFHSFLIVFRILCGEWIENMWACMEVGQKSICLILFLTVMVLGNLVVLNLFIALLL
Sequence of human NaV 1.8 (Q9Y5Y9 1148-1722 limits assumed): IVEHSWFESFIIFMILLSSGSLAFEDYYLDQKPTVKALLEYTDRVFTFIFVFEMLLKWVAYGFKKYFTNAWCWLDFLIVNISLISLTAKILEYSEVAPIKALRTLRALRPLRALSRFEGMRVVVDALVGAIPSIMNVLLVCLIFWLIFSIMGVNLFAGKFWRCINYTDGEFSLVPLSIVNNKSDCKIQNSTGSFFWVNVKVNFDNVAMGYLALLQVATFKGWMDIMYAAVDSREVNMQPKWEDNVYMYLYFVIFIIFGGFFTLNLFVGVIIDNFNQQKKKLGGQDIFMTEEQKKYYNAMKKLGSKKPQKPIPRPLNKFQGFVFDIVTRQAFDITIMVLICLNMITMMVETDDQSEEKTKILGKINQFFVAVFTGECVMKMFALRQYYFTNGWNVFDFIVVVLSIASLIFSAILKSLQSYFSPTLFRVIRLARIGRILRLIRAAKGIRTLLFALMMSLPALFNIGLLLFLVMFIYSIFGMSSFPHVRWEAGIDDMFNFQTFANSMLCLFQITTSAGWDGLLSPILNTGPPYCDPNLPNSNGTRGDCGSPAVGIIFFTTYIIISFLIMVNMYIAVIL

IC50 [1] [nM] | IC50 [2] [nM] | Structure (SMILES)
≥ 1000 | – | COc1c([C@H]2[C@H](C(=O)NC(C)C(N)=O)O[C@@](C)(C(F)(F)F)[C@H]2C)ccc(F)c1F (stereo partly drawn) [Compound 271, (2R,3S,4S,5R)-N-(1-amino-1-oxopropan-2-yl)-3-(3,4-difluoro-2-methoxyphenyl)-4,5-dimethyl-5-(trifluoromethyl)tetrahydrofuran-2-carboxamide]
< 10 | – | COc1c([C@H]2[C@H](C(=O)Nc3ccnc([S+](C)[O-])c3)O[C@@](C)(C(F)(F)F)[C@H]2C)ccc(F)c1F (single isomer, unassigned) [Compound 8]
10 to 100 | – | C[C@@H]1CN(C)CC(=O)N1c1cc(NC(=O)[C@@H]2O[C@@](C)(C(F)(F)F)[C@@H](C)[C@H]2c2ccc(F)c(F)c2OCCO)ccn1 [Compound 653, (2R,3S,4S,5R)-3-(3,4-difluoro-2-(2-hydroxyethoxy)phenyl)-N-(2-((R)-2,4-dimethyl-6-oxopiperazin-1-yl)pyridin-4-yl)-4,5-dimethyl-5-(trifluoromethyl)tetrahydrofuran-2-carboxamide]
< 10 | – | COc1c(C2C(C(=O)Nc3ccnc(S(=O)(=O)CCO)c3)OC(C)(C(F)(F)F)C2C)ccc(F)c1F (centres unmarked) [Compound 62, 3-(3,4-difluoro-2-methoxy-phenyl)-N-[2-(2-hydroxyethylsulfonyl)-4-pyridyl]-4,5-dimethyl-5-(trifluoromethyl)tetrahydrofuran-2-carboxamide]
< 10 | – | CCOc1c([C@H]2[C@H](C(=O)Nc3cncc(S(C)(=O)=O)c3)O[C@@](C)(C(F)(F)F)[C@H]2C)ccc(F)c1F (stereo in doubt) [Compound 107, rel-(2R,3S,4S,5R)-3-(2-ethoxy-3,4-difluorophenyl)-4,5-dimethyl-N-(5-(methylsulfonyl)pyridin-3-yl)-5-(trifluoromethyl)tetrahydrofuran-2-carboxamide]
100 to 1000 | – | COCCOc1c([C@H]2[C@H](C(=O)Nc3cnn(CC(C)(C)O)c3)O[C@@](C)(C(F)(F)F)[C@H]2C)ccc(F)c1F [Compound 583, (2R,3S,4S,5R)-3-(3,4-difluoro-2-(2-methoxyethoxy)phenyl)-N-(1-(2-hydroxy-2-methylpropyl)-1H-pyrazol-4-yl)-4,5-dimethyl-5-(trifluoromethyl)tetrahydrofuran-2-carboxamide]
– | ≥ 1000 | CCOc1c([C@H]2C[C@@](C)(C(F)(F)F)O[C@@H]2C(=O)Nc2ccnc(C(O)CO)c2)ccc(F)c1F (single isomer, unassigned) [Compound 709]
– | 100 to 1000 | C[C@H]1[C@@H](c2ccc(F)c(F)c2OC(F)F)[C@H](C(=O)Nc2cc(S(C)(=O)=O)c[n+]([O-])c2)O[C@@]1(C)C(F)(F)F (single isomer, unassigned) [Compound 88]
100 to 1000 | – | CNS(=O)(=O)c1cc(NC(=O)C2OC(C)(C(F)(F)F)C(C)C2c2ccc(F)c(F)c2OC)ccn1 (single isomer, unassigned) [Compound 455, 3-(3,4-difluoro-2-methoxy-phenyl)-4,5-dimethyl-N-[2-(methylsulfamoyl)-4-pyridyl]-5-(trifluoromethyl)tetrahydrofuran-2-carboxamide]
10 to 100 | – | Cc1nocc1NC(=O)[C@@H]1O[C@@](C)(C(F)(F)F)[C@@H](C)[C@H]1c1ccc(F)c(F)c1OCCNC1COC1 [Compound 631, (2R,3S,4S,5R)-3-(3,4-difluoro-2-(2-(oxetan-3-ylamino)ethoxy)phenyl)-4,5-dimethyl-N-(3-methylisoxazol-4-yl)-5-(trifluoromethyl)tetrahydrofuran-2-carboxamide]
< 10 | – | C[C@H]1[C@@H](c2ccc(F)c(F)c2OCC2COC2)[C@H](C(=O)Nc2ccc(C(N)=O)nc2)O[C@@]1(C)C(F)(F)F [Compound 580, 5-((2R,3S,4S,5R)-3-(3,4-difluoro-2-(oxetan-3-ylmethoxy)phenyl)-4,5-dimethyl-5-(trifluoromethyl)tetrahydrofuran-2-carboxamido)picolinamide]
10 to 100 | – | COc1c([C@H]2[C@H](C(=O)Nc3ccnc(C4(N)CCOC4)c3)O[C@@](C)(C(F)(F)F)[C@H]2C)ccc(F)c1F (single isomer, unassigned) [Compound 347, rel-(2R*,3S*,4S*,5R*)-N-(2-(3-aminotetrahydrofuran-3-yl)pyridin-4-yl)-3-(3,4-difluoro-2-methoxyphenyl)-4,5-dimethyl-5-(trifluoromethyl)-tetrahydrofuran-2-carboxamide]
≥ 1000 | – | COc1c([C@H]2[C@H](C(=O)NCC(C)N3CCN(C)CC3)O[C@@](C)(C(F)(F)F)[C@H]2C)ccc(F)c1F (stereo partly drawn) [Compound 293, (2R,3S,4S,5R)-3-(3,4-difluoro-2-methoxyphenyl)-4,5-dimethyl-N-(2-(4-methylpiperazin-1-yl)propyl)-5-(trifluoromethyl)tetrahydrofuran-2-carboxamide]
≥ 1000 | – | COc1c([C@H]2[C@H](C(=O)NC3CCOCC3)O[C@@](C)(C(F)(F)F)[C@H]2C)ccc(F)c1F [Compound 269, (2R,3S,4S,5R)-3-(3,4-difluoro-2-methoxyphenyl)-4,5-dimethyl-N-(tetrahydro-2H-pyran-4-yl)-5-(trifluoromethyl)tetrahydrofuran-2-carboxamide]
< 10 | – | Cc1c(F)ccc(C2C(C(=O)Nc3ccnc(S(C)(=O)=O)c3)OC(C)(C(F)(F)F)C2C)c1OC(F)F (centres unmarked) [Compound 97, 3-[2-(difluoromethoxy)-4-fluoro-3-methyl-phenyl]-4,5-dimethyl-N-(2-methylsulfonyl-4-pyridyl)-5-(trifluoromethyl)tetrahydrofuran-2-carboxamide]
100 to 1000 | – | CCOc1c([C@@H]2[C@@H](C(=O)Nc3ccnc(S(C)(=N)=O)c3)O[C@](C)(C(F)(F)F)[C@@H]2C)ccc(F)c1C (single isomer, unassigned) [Compound 126]
≥ 1000 | – | COc1c([C@H]2[C@H](C(=O)NC3CCCCNC3=O)O[C@@](C)(C(F)(F)F)[C@H]2C)ccc(F)c1F (stereo partly drawn) [Compound 299, (2R,3S,4S,5R)-3-(3,4-difluoro-2-methoxyphenyl)-4,5-dimethyl-N-(2-oxoazepan-3-yl)-5-(trifluoromethyl)tetrahydrofuran-2-carboxamide]
100 to 1000 | – | COc1c(C2C(C(=O)Nc3ccn4nnnc4c3)OC(C)(C(F)(F)F)C2C)ccc(F)c1C (single isomer, unassigned) [Compound 133, 3-(4-fluoro-2-methoxy-3-methyl-phenyl)-4,5-dimethyl-N-(tetrazolo[1,5-a]pyridin-7-yl)-5-(trifluoromethyl)tetrahydrofuran-2-carboxamide]
< 10 | – | COc1c([C@H]2[C@H](C(=O)Nc3ccn4c(C)ncc4c3)O[C@@](C)(C(F)(F)F)[C@H]2C)ccc(F)c1F [Compound 315, (2R,3S,4S,5R)-3-(3,4-difluoro-2-methoxyphenyl)-4,5-dimethyl-N-(3-methylimidazo[1,5-a]pyridin-7-yl)-5-(trifluoromethyl)-tetrahydrofuran-2-carboxamide]

Structure (SMILES) | IC50 [1] [nM] | IC50 [2] [nM]
COc1c([C@H]2[C@H](C(=O)Nc3ccnc(N4C[C@H]5CC[C@@H](C4=O)N5C)c3)O[C@@](C)(C(F)(F)F)[C@H]2C)ccc(F)c1F (single isomer, unassigned) [Compound 503, rel-(2R*,3S*,4S*,5R*)-3-(3,4-difluoro-2-methoxyphenyl)-4,5-dimethyl-N-(2-((1S,5R)-8-methyl-2-oxo-3,8-diazabicyclo[3.2.1]octan-3-yl)pyridin-4-yl)-5-(trifluoromethyl)tetrahydrofuran-2-carboxamide] | < 10 | –

— patent publication US20240368135A1 (VERTEX PHARMACEUTICALS INCORPORATED, priority 2021, published 2024)
